pIC50: −log10 of the molar value.
Each molecule was assayed against T1, AR-LBD and TIF2 (Homo sapiens, UniProt P10275) (assay: AR-TIF2 mammalian 2-hybrid assay). Conditions: HEK 293 cells; read-out: Inhibition DHT-induced AR-TIF2 mammalian 2 hybrid assay IC50.
T1 construct: AR-LBD amino acids 658-919 expressed as a fusion protein with Gal4-DBD; expressed in transfected cells; host or cells: HEK 293, transient co-transfection
T1 sequence (P10275 658-919): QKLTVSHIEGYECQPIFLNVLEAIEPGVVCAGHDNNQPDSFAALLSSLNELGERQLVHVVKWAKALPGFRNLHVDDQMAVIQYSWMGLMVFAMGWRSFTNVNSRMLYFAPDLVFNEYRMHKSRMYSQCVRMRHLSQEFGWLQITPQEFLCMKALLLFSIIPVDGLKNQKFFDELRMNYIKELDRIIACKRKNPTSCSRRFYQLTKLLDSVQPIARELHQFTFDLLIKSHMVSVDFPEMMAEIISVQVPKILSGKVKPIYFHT
Type: cell-based
Description: TIF2 and SRC1 Mammalian 2-Hybrid Assays: The 5×GAL4-TATA-luciferase reporter plasmid was a gift from Dr. Richard Maurer from the Oregon Health and Science University (Gonzalez et al., Cell 1989, 59:675-80), and constructs pGAL4-hAR-658-919 (AR-LBD amino acids 658-919 expressed as a fusion protein with Gal4-DBD) (Askew et al., J Biol Chem 2007, 282:25801-16), pVP16-SRC1 (full-length SRC1 expressed as a fusion with VP16 activation domain) (He et al., J Biol Chem 1999, 274:37219-25) and pVP16-Empty vectors were kindly provided to us by Dr. Elizabeth Wilson, from UNC Chapel Hill. pVP16-TIF2 was generated as described previously (Fancher et al., Assay Drug Dev Technol. 2019, 17:364-386). HEK 293 cells were transiently co-transfected with 5 ng of pGal4-AR-LBD, 10 ng of either pVP16-TIF2 or pVP16-SRC1, and 20 ng of the 5×Gal4-TATA-Luc reporter as described previously (Ibid.). HEK 293 cells were bulk co-transfected with the three plasmids that had been individually incubated with FuGENE® 6 transfection agent (Fugent LLC, Middleton, WI) at a 3:1 ratio for 25 min at room temperature (RT) in serum free media (SFM) and then combined with HEK 293 cells that were suspended in DMEM (Cellgro10013CV) with 2 mM L-glutamine (Invitrogen) that was supplemented with 10% fetal bovine serum, and 5,000 cells in a volume of 40 μL were seeded into the wells of white opaque 384-well assay plates (Greiner Bio-one, #781080) and cultured overnight at 37° C., 5% CO2, and 95% humidity. […] 25 μL of BrightGlo® reagent (Promega, Madison, WI) was added to the plate and the relative luminescence units (RLUs) were captured on a SpectraMax® M5e microtiter plate reader (Molecular Devices, LLC, San Jose, CA).

SMILES | pIC50
Cc1ccccc1-c1cc(O)c2c(c1)CN(c1nc(C(N)=O)cs1)CCO2 [Compound S1-1] | 6.04
Cc1nsc(NC(=O)N2CCC(Sc3ccccc3C)CC2)n1 [Compound S2-6] | 7.30
Cc1c(-c2ccccc2F)[nH]c2ccc(CNC(=O)CCc3cn[nH]c3)cc12 [Compound S3-11] | 6.05
